Assays:
[1] = tested on: α-isomaltosylglucosaccharide-forming enzyme; experiment: Influence of metal ions on α-isomaltosylglucosaccharide-forming enzyme activity (C11 strain); format: biochemical, Bacillus globisporus C11 strain; conditions: in the presence of 1 mM metal salt; None = 100
Method: The activities of these enzymes were assayed as follows: The activity of α-isomaltosylglucosaccharide-forming enzyme was assayed by dissolving maltotriose in 100 mM acetate buffer (pH 6.0) to give a concentration of 2% (w/v) for a substrate solution, adding 0.5 ml of an enzyme solution to 0.5 ml of the substrate solution, enzymatically reacting the mixture solution at 35° C. for 60 min, boiling the reaction mixture for 10 min to suspend the enzymatic reaction, and quantifying maltose, among the isomaltosyl maltose and maltose formed in the reaction mixture, on HPLC as described in Experiment 1. One unit activity of the α-isomaltosylglucosaccharide-forming enzyme was defined as the enzyme amount that forms one micromole of maltose per minute under the above enzymatic reaction conditions.
The influence of metal ions on the activity of α-isomaltosylglucosaccharide-forming enzyme was examined in the presence of 1 mM of any of metal salts according to the assay for the enzyme activity.

[2] = Dehydration and pulverization of plain yogurt by non-reducing saccharide; design: unit not given here; conditions: listed as A
Method: The anhydrous crystalline cyclotetrasaccharide; crystalline cyclotetrasaccharide, monohydrate; and anhydrous amorphous cyclotetrasaccharide were respectively prepared by the methods in Examples A-1, A-2, and A-3. As the crystalline α,α-trehalose, dihydrate, a commercially available “TREHA®” commercialized by Hayashibara Shoji Inc., Okayama, Japan, was used. The anhydrous crystalline α,α-trehalose and the anhydrous amorphous α,α-trehalose used in this experiment were prepared from a commercialized crystalline α,α-trehalose, dihydrate, using the methods disclosed in Examples for Reference 1 and 3 in Japanese Patent Kokai No. 170,221/94. To four parts by weight of a plain yogurt with a moisture content of about 77% was added either of the above saccharides in an amount of 11 to 16 parts by weight. The resultant mixtures were respectively placed in vats, allowed to stand at 25° C. for 24 hours, and macroscopically observed their change on standing. The judgement was conducted in such a manner of sufficiently dehydrating the resulting mixtures to be solidified, subjected to a pulverizer for pulverization, and evaluated as “◯”, when the solids were easily pulverized; “Δ”, when the dehydration of the resulting mixtures was rather insufficient and the pulverization of solids was substantially difficult, though the resulting mixtures were solidified; and “x”, when the dehydration of the resulting mixtures was insufficient and could not be pulverized by a pulverizer.

[3] = Dehydrating action: moisture absorption on standing at controlled relative humidity; format: physicochemical; conditions: for moisture content (%) by the Karl Fisher method: 25° C., listed as A
Excerpt: Anhydrous crystalline cyclotetrasaccharide; crystalline cyclotetrasaccharide, monohydrate; anhydrous amorphous cyclotetrasaccharide; and crystalline cyclotetrasaccharide, penta- or hexa-hydrate were experimented in detail on their dehydrating actions, particularly, moisture absorption abilities against saccharides and changes on standing. As a control, anhydrous crystalline α,α-trehalose, anhydrous amorphous α,α-trehalose, and crystalline α,α-trehalose, dihydrate, were used as saccharides. The experiments were as follows: […]

[4] = tested on: Aspergillus niger; experiment: Bacterial contamination of gelatinized starch (gyuhi); conditions: at 30 days on standing, 25° C., open conditions
Method: The mixture was mixed with a mixer and further mixed to homogeneity with two parts by weight of a starch hydrolyzate, shaped, and roughly dried for two hours, while blowing 40° C. hot air to the contents, to obtain “gyuhi” (a rice paste with sugar).

Relative activity (%) [1]	Water content (before use) [2]	moisture content (%) by the Karl Fisher method ([3]; relative humidity 60%, 0 days after treatment)	moisture content (%) by the Karl Fisher method ([3]; relative humidity 60%, 1 day after treatment)	moisture content (%) by the Karl Fisher method ([3]; relative humidity 60%, 2 days after treatment)	moisture content (%) by the Karl Fisher method ([3]; relative humidity 60%, 3 days after treatment)	moisture content (%) by the Karl Fisher method ([3]; relative humidity 60%, 7 days after treatment)	moisture content (%) by the Karl Fisher method ([3]; relative humidity 75%, 0 days after treatment)	moisture content (%) by the Karl Fisher method ([3]; relative humidity 75%, 1 day after treatment)	moisture content (%) by the Karl Fisher method ([3]; relative humidity 75%, 2 days after treatment)	moisture content (%) by the Karl Fisher method ([3]; relative humidity 75%, 3 days after treatment)	moisture content (%) by the Karl Fisher method ([3]; relative humidity 75%, 7 days after treatment)	moisture absorption level, % of its weight ([3]; relative humidity of 60%, listed as anhydrous crystalline cyclotetrasaccharide)	moisture absorption level, % of its weight ([3]; relative humidity of 75%)	SMILES	bacterial contamination in gyuhi [4]
100%	–	–	–	–	–	–	–	–	–	–	–	–	–	[Al+3] [Al^3+]	–
100%	–	–	–	–	–	–	–	–	–	–	–	–	–	[Fe+2] [Fe^2+]	–
–	0.2	0.2%	10.2%	10.3%	10.3%	10.4%	0.2%	13.9%	14.4%	14.4%	14.3%	about 10%	about 14%	OC[C@H]1O[C@@H]2OC[C@H]3O[C@H](O[C@@H]4[C@@H](O)[C@@H](OC[C@H]5O[C@H](O[C@H]([C@H]2O)[C@@H]1O)[C@H](O)[C@@H](O)[C@@H]5O)O[C@H](CO)[C@H]4O)[C@H](O)[C@@H](O)[C@@H]3O [Saccharide A, anhydrous crystalline cyclotetrasaccharide]	found no bacterial contamination

Reference: patent US7186701B2, “Dehydrating agent and method for dehydrating moist article using the agent and dehydrated article obtained by the method” (Kabushiki Kaisha Hayashibara Seibutsu Kagaku Kenkyujo, priority 2001, dated 2007)
